Drawing on patent publication US11053230B2, “3-hydroxy-imidazolidin-4-one compounds as inhibitors of indoleamine 2,3-dioxygenase” (Netherlands Translational Research Center B.V., priority 2017, dated 2021), this text covers IC50 for 37 compounds.

The experiment concerns the target T1, IDO1 (Homo sapiens, UniProt P14902).
T1 construct: Recombinant full-length IDO1 (Seegers, N., et al.) and all other assay components were diluted in IDO1 reaction buffer; made in house
Put plainly: Biochemical IDO1 assay (NFK GreenScreen). Conditions: NFK GreenScreen; 25 nM IDO1, 100 μM L-tryptophan; read-out: IC50, inhibitory potency on IDO1. As for the experimental part: Inhibition of IDO1 activity can be measured by determining the enzymatic conversion of L-tryptophan into N-formylkynurenine (NFK) in a reaction mixture containing IDO1 and test compound. The formation of NFK can be detected directly by, for instance, high-performance liquid chromatography (HPLC) methods, or by intrinsic fluorescence.
Compounds were serially diluted in dimethylsulfoxide (DMSO) and finally in IDO1 reaction buffer, consisting of 50 mM NaH2PO4, pH7.0, supplemented with 0.05% Tween-20 (cat. No. P7949; Sigma Aldrich) and 1% glycerol. Recombinant full-length IDO1 (Seegers, N., et al.) and all other assay components were diluted in IDO1 reaction buffer. […] Subsequently, 10 μl of 0.4 mM of the substrate L-tryptophan was added, i.e., the final concentration of L-tryptophan was 100 μM. The DMSO concentration in the assay was 0.3%. […] Incubation was continued for 60 min at room temperature. Then, 10 μl of NFK Green™ (NTRC, Oss, The Netherlands) was added, the plate was sealed, and the reaction was developed for 3 hours at 37° C. To determine the production of N-formyl kynurenine (NFK), the seal was removed and fluorescence was read on an EnVision multimode reader (Perkin Elmer, Waltham, Mass., USA). IC50 were calculated using XLfit™ software (ID Business Solutions, Ltd., Surrey, U.K.).

Values joined by “and” are separate entries in the source; they are usually repeats but may differ in a detail not shown here. Equal values may be shown once. Where only a bound is given, the exact number is not on record here.

T1 sequence (P14902 whole entry): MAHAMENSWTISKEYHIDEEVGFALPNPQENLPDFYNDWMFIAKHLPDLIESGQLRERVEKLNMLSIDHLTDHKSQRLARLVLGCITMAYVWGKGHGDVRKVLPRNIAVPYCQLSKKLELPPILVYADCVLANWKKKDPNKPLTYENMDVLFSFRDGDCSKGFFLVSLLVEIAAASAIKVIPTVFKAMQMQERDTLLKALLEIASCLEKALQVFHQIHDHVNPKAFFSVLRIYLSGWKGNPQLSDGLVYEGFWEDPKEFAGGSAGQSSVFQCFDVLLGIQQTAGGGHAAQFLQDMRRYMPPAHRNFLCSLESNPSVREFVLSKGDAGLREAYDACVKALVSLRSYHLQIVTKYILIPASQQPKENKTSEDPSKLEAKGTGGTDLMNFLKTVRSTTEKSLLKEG

On to `O=C1CN(C(=O)c2ccccc2F)C(c2cc(Br)cs2)N1O` (stereo not shown) [Example 9, 2-(4-Bromo-2-thienyl)-1-(2-fluorobenzoyl)-3-hydroxy-imidazolidin-4-one], for which the IC50 is at most 1000 nM.

With `O=C1CN(C(=O)c2c(Cl)cccc2Cl)C(c2cc(Br)cs2)N1O` (stereo not shown) [Example 10, 2-(4-Bromo-2-thienyl)-1-(2,6-dichlorobenzoyl)-3-hydroxy-imidazolidin-4-one], the IC50 is ≤ 5000 nM and 1000 to 5000 nM.

Turning to `O=C1CN(C(=O)c2c(F)cccc2C(F)(F)F)C(c2cc(Br)cs2)N1O` (stereo not shown) [Example 11, 2-(4-Bromo-2-thienyl)-1-[2-fluoro-6-(trifluoromethyl)benzoyl]-3-hydroxy-imidazolidin-4-one], the IC50 was ≤ 5000 nM and 1000 to 5000 nM.

`O=C1CN(C(=O)c2ccccc2)C(c2cc(Br)cs2)N1O` (stereo not shown) [Example 12, 1-Benzoyl-2-(4-bromo-2-thienyl)-3-hydroxy-imidazolidin-4-one]: the IC50 is ≤ 5000 nM and 1000 to 5000 nM.

Consider `CSc1ccc(C2N(O)C(=O)CN2C(=O)c2ccccc2F)s1` (stereo not shown) [Example 13, 1-(2-Fluorobenzoyl)-3-hydroxy-2-(5-methylsulfanyl-2-thienyl)imidazolidin-4-one], for which the IC50 was ≤ 5000 nM and 1000 to 5000 nM.

For the compound `CSc1ccc(C2N(O)C(=O)CN2C(=O)c2c(F)cccc2F)s1` (stereo not shown) [Example 14, 1-(2,6-Difluorobenzoyl)-3-hydroxy-2-(5-methylsulfanyl-2-thienyl)imidazolidin-4-one], the IC50 was ≤ 5000 nM and 1000 to 5000 nM.

For the compound `O=C1CN(C(=O)c2c(F)cccc2F)C(c2ccc([N+](=O)[O-])s2)N1O` (stereo not shown) [Example 16, 1-(2,6-Difluorobenzoyl)-3-hydroxy-2-(5-nitro-2-thienyl)imidazolidin-4-one], the IC50 was ≤ 5000 nM and 1000 to 5000 nM.

In the case of `CCc1ccc(C2N(O)C(=O)CN2C(=O)c2c(F)cccc2F)s1` (stereo not shown) [Example 18, 1-(2,6-Difluorobenzoyl)-2-(5-ethyl-2-thienyl)-3-hydroxy-imidazolidin-4-one], the IC50 was ≤ 5000 nM and 1000 to 5000 nM.

On to `O=C1CN(C(=O)c2c(F)cccc2F)C(c2csc([N+](=O)[O-])c2)N1O` (stereo not shown) [Example 20, 1-(2,6-Difluorobenzoyl)-3-hydroxy-2-(5-nitro-3-thienyl)imidazolidin-4-one], for which the IC50 is at most 1000 nM.

As to `O=C1CN(C(=O)c2c(F)cccc2F)C(c2cc([N+](=O)[O-])cs2)N1O` (stereo not shown) [Example 21, 1-(2,6-Difluorobenzoyl)-3-hydroxy-2-(4-nitro-2-thienyl)imidazolidin-4-one], the IC50 was at most 1000 nM.

As for `O=C1CN(C(=O)c2c(F)cccc2F)C(c2nc(Br)cs2)N1O` (stereo not shown) [Example 22, 2-(4-Bromothiazol-2-yl)-1-(2,6-difluorobenzoyl)-3-hydroxy-imidazolidin-4-one], the IC50 was ≤ 5000 nM and 1000 to 5000 nM.

Take `O=C1CN(C(=O)c2c(F)cccc2F)C(c2cc(Br)co2)N1O` (stereo not shown) [Example 23, 2-(4-Bromo-2-furyl)-1-(2,6-difluorobenzoyl)-3-hydroxy-imidazolidin-4-one]: the IC50 is ≤ 5000 nM and 1000 to 5000 nM.

With `O=C1CN(C(=O)c2c(F)cccc2F)C(c2csc(Br)c2)N1O` (stereo not shown) [Example 28, 2-(5-Bromo-3-thienyl)-1-(2,6-difluorobenzoyl)-3-hydroxy-imidazolidin-4-one], the IC50 is at most 1000 nM.

As to `N#Cc1csc(C2N(O)C(=O)CN2C(=O)c2c(F)cccc2Cl)c1` (stereo not shown) [Example 29, 5-[1-(2-Chloro-6-fluoro-benzoyl)-3-hydroxy-4-oxo-imidazolidin-2-yl]thiophene-3-carbonitrile], the IC50 is ≤ 5000 nM and 1000 to 5000 nM.

On to `N#Cc1csc(C2N(O)C(=O)CN2C(=O)c2c(F)cccc2F)c1` (stereo not shown) [Example 30, 5-[1-(2,6-Difluorobenzoyl)-3-hydroxy-4-oxo-imidazolidin-2-yl]thiophene-3-carbonitrile], for which the IC50 was ≤ 5000 nM and 1000 to 5000 nM.

For the compound `N#Cc1csc(C2N(O)C(=O)CN2C(=O)c2ccccc2F)c1` (stereo not shown) [Example 31, 5-[1-(2-Fluorobenzoyl)-3-hydroxy-4-oxo-imidazolidin-2-yl]thiophene-3-carbonitrile], the 50% inhibitory concentration (IC50) was ≤ 5000 nM and 1000 to 5000 nM.

In the case of `O=C1CN(C(=O)c2c(F)cccc2F)C(c2cc(Cl)cs2)N1O` (stereo not shown) [Example 33, 2-(4-Chloro-2-thienyl)-1-(2,6-difluorobenzoyl)-3-hydroxy-imidazolidin-4-one], the IC50 was at most 1000 nM.

For the compound `C#Cc1csc(C2N(O)C(=O)CN2C(=O)c2ccccc2F)c1` (stereo not shown) [Example 35, 2-(4-Ethynyl-2-thienyl)-1-(2-fluorobenzoyl)-3-hydroxy-imidazolidin-4-one], the IC50 is ≤ 5000 nM and 1000 to 5000 nM.

For the compound `O=C1CN(C(=O)c2c(F)cccc2F)C(c2cc(I)cs2)N1O` (stereo not shown) [Example 36, 1-(2,6-Difluorobenzoyl)-3-hydroxy-2-(4-iodo-2-thienyl)imidazolidin-4-one], the half-inhibitory concentration (IC50) is at most 1000 nM.

In the case of `O=C1CN(C(=O)c2c(F)cccc2F)C(c2cc(Br)c(F)s2)N1O` (stereo not shown) [Example 37, 2-(4-Bromo-5-fluoro-2-thienyl)-1-(2,6-difluorobenzoyl)-3-hydroxy-imidazolidin-4-one], the half-maximal inhibitory concentration (IC50) is at most 1000 nM.

On to `C#Cc1cc(F)c(C(=O)N2CC(=O)N(O)C2c2cc(Br)cs2)c(F)c1` (stereo not shown) [Example 38, 2-(4-Bromo-2-thienyl)-1-(4-ethynyl-2,6-difluoro-benzoyl)-3-hydroxy-imidazolidin-4-one], for which the half-maximal inhibitory concentration (IC50) is at most 1000 nM.

Turning to `O=C1CN(C(=O)c2c(F)cc(C#CC3CC3)cc2F)C(c2cc(Br)cs2)N1O` (stereo not shown) [Example 39, 2-(4-Bromo-2-thienyl)-1-[4-(2-cyclopropylethynyl)-2,6-difluoro-benzoyl]-3-hydroxy-imidazolidin-4-one], the IC50 was at most 1000 nM.

As to `CS(=O)(=O)NCC#Cc1cc(F)c(C(=O)N2CC(=O)N(O)C2c2cc(Br)cs2)c(F)c1` (stereo not shown) [Example 40, N-[3-[4-[2-(4-bromo-2-thienyl)-3-hydroxy-4-oxo-imidazolidine-1-carbonyl]-3,5-difluoro-phenyl]-prop-2-ynyl]methanesulfonamide], the 50% inhibitory concentration (IC50) was at most 1000 nM.

On to `O=C1CN(Cc2ccccc2F)C(c2ccc(Br)s2)N1O` (stereo not shown) [Example 41, 2-(5-Bromo-2-thienyl)-1-[(2-fluorophenyl)methyl]-3-hydroxy-imidazolidin-4-one], for which the IC50 was at most 1000 nM.

On to `O=C1CN(Cc2ccccc2F)C(c2csc(Br)c2)N1O` (stereo not shown) [Example 42, 2-(5-Bromo-3-thienyl)-1-[(2-fluorophenyl)methyl]-3-hydroxy-imidazolidin-4-one], for which the half-inhibitory concentration (IC50) was at most 1000 nM.

As for `O=C1CN(Cc2ccccc2F)C(c2cc(Br)cs2)N1O` (stereo not shown) [Example 43, 2-(4-Bromo-2-thienyl)-1-[(2-fluorophenyl)methyl]-3-hydroxy-imidazolidin-4-one], the IC50 is at most 1000 nM.

Consider `O=C1CN(Cc2c(F)cccc2F)C(c2cc(Br)cs2)N1O` (stereo not shown) [Example 44, 2-(4-Bromo-2-thienyl)-1-[(2,6-difluorophenyl)methyl]-3-hydroxy-imidazolidin-4-one], for which the 50% inhibitory concentration (IC50) is at most 1000 nM.

As to `CC(C)C#Cc1cc(F)c(C(=O)N2CC(=O)N(O)C2c2cc(Br)cs2)c(F)c1` (stereo not shown) [Example 50, 2-(4-Bromo-2-thienyl)-1-[2,6-difluoro-4-(3-methylbut-1-ynyl)benzoyl]-3-hydroxy-imidazolidin-4-one], the IC50 is at most 1000 nM.

Turning to `COc1cc(F)c(C(=O)N2CC(=O)N(O)C2c2cc(Br)cs2)c(F)c1` (stereo not shown) [Example 51, 2-(4-Bromo-2-thienyl)-1-(2,6-difluoro-4-methoxy-benzoyl)-3-hydroxy-imidazolidin-4-one], the half-inhibitory concentration (IC50) was at most 1000 nM.

With `O=C1CN(C(=O)c2c(F)cc(Br)cc2F)C(c2cc(Br)cs2)N1O` (stereo not shown) [Example 52, 1-(4-Bromo-2,6-difluoro-benzoyl)-2-(4-bromo-2-thienyl)-3-hydroxy-imidazolidin-4-one], the half-inhibitory concentration (IC50) is at most 1000 nM.

As to `O=C1CN(C(=O)c2ccc(Cc3ccccc3)cc2)C(c2cc(Br)cs2)N1O` (stereo not shown) [Example 53, 1-(4-Benzylbenzoyl)-2-(4-bromo-2-thienyl)-3-hydroxy-imidazolidin-4-one], the IC50 is ≤ 5000 nM and 1000 to 5000 nM.

Regarding `O=C1CN(C(=O)c2ccc(Oc3ccccc3)cc2)C(c2cc(Br)cs2)N1O` (stereo not shown) [Example 54, 2-(4-Bromo-2-thienyl)-3-hydroxy-1-(4-phenoxybenzoyl)imidazolidin-4-one], the concentration for half-maximal inhibition (IC50) was ≤ 5000 nM and 1000 to 5000 nM.

For the compound `O=C1CN(C(=O)c2ccccc2Cl)C(c2cc(Br)cs2)N1O` (stereo not shown) [Example 55, 2-(4-Bromo-2-thienyl)-1-(2-chlorobenzoyl)-3-hydroxy-imidazolidin-4-one], the IC50 was at most 1000 nM.

Consider `O=C1CN(C(=O)c2ccccc2C(F)(F)F)C(c2cc(Br)cs2)N1O` (stereo not shown) [Example 56, 2-(4-Bromo-2-thienyl)-3-hydroxy-1-[2-(trifluoromethyl)benzoyl]imidazolidin-4-one], for which the concentration for half-maximal inhibition (IC50) is ≤ 5000 nM and 1000 to 5000 nM.

Regarding `O=C1CN(C(=O)c2c(F)c(F)c(F)c(F)c2F)C(c2cc(Br)cs2)N1O` (stereo not shown) [Example 63, 2-(4-Bromo-2-thienyl)-3-hydroxy-1-(2,3,4,5,6-pentafluorobenzoyl)imidazolidin-4-one], the IC50 is at most 1000 nM.

Take `O=C1CN(C(=O)c2ccc(C(F)(F)F)cc2F)C(c2cc(Br)cs2)N1O` (stereo not shown) [Example 64, 2-(4-Bromo-2-thienyl)-1-[2-fluoro-4-(trifluoromethyl)benzoyl]-3-hydroxy-imidazolidin-4-one]: the concentration for half-maximal inhibition (IC50) is ≤ 5000 nM and 1000 to 5000 nM.

In the case of `Cc1cccc(F)c1C(=O)N1CC(=O)N(O)C1c1cc(Br)cs1` (stereo not shown) [Example 65, 2-(4-Bromo-2-thienyl)-1-(2-fluoro-6-methyl-benzoyl)-3-hydroxy-imidazolidin-4-one], the IC50 is at most 1000 nM.
